A short description of the data set: Krafft Temperature from electrical conductivity in water at various temperatures. In kind it is physicochemical. Particulars: electrical conductivity vs. temperature, sulfate. As to the method: In some embodiments, the surfactants useful for the present disclosure can have a high Krafft temperature. For example, exemplary surfactants can have a Krafft temperature of at least 50° C. […] Krafft temperature can be determined by, for example, measuring electrical conductivity in water at various temperatures, where the Krafft temperature is taken to be the inflection point when conductivity is plotted against temperature.
Krafft Temperature, the temperature at which an ionic surfactant begins to form micelles in water, is marked by a significant increase in solubility and therefore electrical conductivity for ionic surfactants. Electrical conductivities of the HMW Surfactant species were measured in water at various temperatures to determine Krafft Temperature.

In the case of `CCCCCCCCCCCCOS(=O)(=O)[O-].[Na+]` [sodium dodecyl sulfate], the “Krafft Temperature” value was “roughly 15 °C”. Moreover, the “Krafft Temperature” value (listed as SDS) is 15 °C.

For the origin of these results see patent publication US20240043699A1, “DISPERSION AND COATINGS DERIVED THEREFROM” (UNIVERSITY OF MASSACHUSETTS, priority 2022, published 2024).
